Active and inactive are the calls of the source. The rule behind the calls is not given here.
Assays:
[1] = system: Respiratory syncytial virus; assay: Antiviral activity against RSV A2 infected in Normal human bronchial epithelial cells incubated for 3 days by ONE-Glo luciferase assay; format: functional, organism-based; conditions: A2, Epithelial cell, 72 h
[2] = Cytotoxicity against human MT4 cells incubated for 5 days by Cell Titer Glo assay; format: toxicity, cell-based; conditions: time 5 day
[3] = Distribution coefficient, log D of compound measured after 30 mins by HPLC/UV analysis; format: physicochemical; conditions: octanol/water
[4] = Prodrug conversion in Normal human bronchial epithelial cells assessed as ((2R,3S,4R,5S)-5-(4-aminopyrrolo[2,1-f][1,2,4]triazin-7-yl)-2-cyano-3,4-dihydroxytetrahydrofuran-2-yl)methyl tetrahydrogen triphosphate formation measured per million cells at 1 uM measured after 48 hrs by LC-MS/MS analysis; format: ADME, cell-based; conditions: epithelial cell
[5] = Cytotoxicity against Normal human bronchial epithelial cells; format: toxicity, cell-based, Epithelial cell
[6] = Selectivity index, ratio of CC50 for Normal human bronchial epithelial cells to EC50 for RSV A2 infected in Normal human bronchial epithelial cells; format: toxicity; conditions: read-out: Ratio CC50/EC50
[7] = Selectivity index, ratio of CC50 for human HEp-2 cells to EC50 for RSV A2 infected in human HEp-2 cells; format: toxicity, cell-based; conditions: read-out: Ratio CC50/EC50
[8] = system: Respiratory syncytial virus; assay: (§1) Antiviral activity against RSV A2 infected in human airway epithelium transwell culture assessed as decrease in viral RNA level by measuring log10 reduction in median viral load at 0.01 uM pretreated at apical side for 3 hrs followed by compound washout and subsequent viral infection at apical side for 3 hrs followed by removal of virus and recurrent addition of compound on day 1 and 2 at basolateral side measured on day 3 by RT-qPCR analysis; format: functional; conditions: time 75 hrs
[9] = system: Respiratory syncytial virus; assay: as §1, with “0.05” for “0.01”; format: functional; conditions: time 75 hrs
[10] = system: Respiratory syncytial virus; assay: as §1, with “0” for “1 and 2”, “apical” for “basolateral”; format: functional; conditions: time 75 hrs
[11] = Cytotoxicity against rhesus monkey LLC-MK2 cells incubated for 5 days by MTS assay; format: toxicity, cell-based, Macaca mulatta; conditions: time 5 day
enterovirus D68 = assay: Anti-viral activity against EV-D68 (18952) infected in human RD cells by MTS assay; format: functional, organism-based; conditions: Enterovirus D, 18952, RD
[12] = Cytotoxicity against human RD cells by MTS assay; format: toxicity, cell-based
Enterovirus A71 = assay: Anti-viral activity against EV-71 (H) infected in human RD cells by MTS assay; format: functional, organism-based; conditions: Enterovirus A
SARS-CoV-2 = assay: Anti-viral activity against SARS-CoV-2 infected in human A549 cells expressing hACE2 by firefly reporter assay; format: functional, organism-based; conditions: Severe acute respiratory syndrome coronavirus 2, A549
[13] = Cytotoxicity against human A549 cells expressing hACE2 incubated for 28 hrs by Cell Titer Glo assay; format: toxicity, cell-based
[14] = system: Respiratory syncytial virus; assay: Antiviral activity against Fluc-fused RSV A2 infected in Normal human bronchial epithelial cells incubated for 3 days by ONE Glo luciferase assay; format: functional, organism-based; conditions: A2, Epithelial cell, 72 h
[15] = system: Respiratory syncytial virus; assay: Antiviral activity against Fluc-fused RSV A2 infected in D-HBE-COPD cells incubated for 3 days by ONE Glo luciferase assay; format: functional, organism-based; conditions: human respiratory syncytial virus, 72 h
[16] = system: Respiratory syncytial virus; assay: Antiviral activity against Fluc-fused RSV A2 infected in D-HBE-As cells incubated for 3 days by ONE Glo luciferase assay; format: functional, organism-based; conditions: human respiratory syncytial virus, 72 h
[17] = Prodrug conversion in D-HBE-COPD cells assessed as ((2R,3S,4R,5S)-5-(4-aminopyrrolo[2,1-f][1,2,4]triazin-7-yl)-2-cyano-3,4-dihydroxytetrahydrofuran-2-yl)methyl tetrahydrogen triphosphate formation measured per million cells at 1 uM measured after 48 hrs by LC-MS/MS analysis; format: ADME, cell-based; conditions: human
[18] = Prodrug conversion in human H1-HeLa cells assessed as ((2R,3S,4R,5S)-5-(4-aminopyrrolo[2,1-f][1,2,4]triazin-7-yl)-2-cyano-3,4-dihydroxytetrahydrofuran-2-yl)methyl tetrahydrogen triphosphate formation measured per million cells at 0.2 uM measured after 48 hrs by LC-MS/MS analysis; format: ADME, cell-based
[19] = system: Respiratory syncytial virus; assay: Antiviral activity against RSV A2 infected in D-HBE-COPD cells assessed as inhibition of intracellular virus replication; format: functional, organism-based; conditions: human respiratory syncytial virus
[20] = Half life in Cynomolgous monkey at 5 mg/kg, iv measured after 30 mins by LC-MS/MS analysis; format: ADME, organism-based, Macaca fascicularis; conditions: cynomolgus monkey, in vivo
[21] = Cmax in Cynomolgous monkey at 5 mg/kg, iv measured after 30 mins by LC-MS/MS analysis; format: ADME, organism-based, Macaca fascicularis; conditions: cynomolgus monkey, in vivo
[22] = AUC (0 to 24 hrs) in Cynomolgous monkey at 5 mg/kg, iv measured after 30 mins by LC-MS/MS analysis; format: ADME, organism-based, Macaca fascicularis; conditions: cynomolgus monkey, in vivo
[23] = Drug metabolism in Cynomolgous monkey assessed as half life of (2R,3S,4R,5S)-5-(4-aminopyrrolo[2,1-f][1,2,4]triazin-7-yl)-3,4-dihydroxy-2-(hydroxymethyl)tetrahydrofuran-2-carbonitrile metabolite at 5 mg/kg, iv measured after 30 mins by LC-MS/MS analysis; format: ADME, organism-based, Macaca fascicularis; conditions: cynomolgus monkey, in vivo, 0.5 h
[24] = Drug concentration in lung of Cynomolgous monkey at lung-deposited dose of 4 mg/kg, IT measured after 24 hrs by LC-MS/MS analysis; format: ADME, organism-based, Macaca fascicularis; conditions: cynomolgus monkey, in vivo, other
[25] = Drug metabolism in Cynomolgous monkey assessed as Cmax of (2R,3S,4R,5S)-5-(4-aminopyrrolo[2,1-f][1,2,4]triazin-7-yl)-3,4-dihydroxy-2-(hydroxymethyl)tetrahydrofuran-2-carbonitrile metabolite at lung-deposited dose of 4 mg/kg, IT measured after 24 hrs by LC-MS/MS analysis; format: ADME, organism-based, Macaca fascicularis; conditions: cynomolgus monkey, in vivo, other
[26] = Drug metabolism in Cynomolgous monkey assessed as AUC (0 to 24 hrs) of (2R,3S,4R,5S)-5-(4-aminopyrrolo[2,1-f][1,2,4]triazin-7-yl)-3,4-dihydroxy-2-(hydroxymethyl)tetrahydrofuran-2-carbonitrile metabolite at lung-deposited dose of 4 mg/kg, IT measured after 24 hrs by LC-MS/MS analysis; format: ADME, organism-based, Macaca fascicularis; conditions: cynomolgus monkey, in vivo, other
[27] = Half life in African green monkey at lung-deposited dose of 5.9 mg/kg, IT measured after 24 hrs by LC-MS/MS analysis; format: ADME, organism-based; conditions: chlorocebus aethiops, in vivo
[28] = AUC (0 to 24 hrs) in African green monkey at lung-deposited dose of 5.9 mg/kg, IT measured after 24 hrs by LC-MS/MS analysis; format: ADME, organism-based; conditions: chlorocebus aethiops, in vivo
[29] = system: Respiratory syncytial virus; assay: Antiviral activity against RSV infected in African green monkey assessed as log10 reduction in viral load in BAL at lung-deposited dose of 1.6 to 7.6 mg/kg, IT qd measured after 5 days by RT-qPCR analysis; format: functional; conditions: dose 1.6-7.6 mg/kg, time 5 day
[30] = system: Respiratory syncytial virus; assay: Antiviral activity against RSV infected in African green monkey assessed as reduction in viral load in BAL at lung-deposited dose of 1.6 to 7.6 mg/kg, IT qd for 6 days measured on day 7 to 9 by RT-qPCR analysis; format: functional, organism-based; conditions: dose 1.6-7.6 mg/kg, time 9.0 day
[31] = system: Respiratory syncytial virus; assay: Antiviral activity against RSV infected in African green monkey assessed as reduction in viral load in nasal swabs at lung-deposited dose of 1.6 to 7.6 mg/kg, IT qd for 6 days; format: functional, organism-based; conditions: dose 1.6-7.6 mg/kg, time 6.0 day

COC(=O)[C@H](C)N[P@](=O)(OC[C@@]1(C#N)O[C@@H](c2ccc3c(N)ncnn23)[C@H](OC(=O)C(C)C)[C@@H]1OC(=O)C(C)C)Oc1ccccc1
EC50 [1]: 15 nM
CC50 at 120 h [2]: 3240 nM
logD at 0.5 h [3]: 3
Drug metabolism [4]: 88.8 pM
CC50 [5]: 8300 nM
selectivity ratio [6]: 640
selectivity ratio [7]: 500
Activity [8]: 0.2 log10/ml
Activity [9]: 0.5 log10/ml
Activity [10]: 0.2 log10/ml
CC50 at 120 h [11]: > 2000 nM
EC50 (enterovirus D68): 90 nM
CC50 [12]: > 2000 nM
EC50 (Enterovirus A71): 83 nM
EC50 (SARS-CoV-2): 4750 nM
CC50 at 28 h [13]: 21100 nM
EC50 [14]: < 3 nM
EC50 [15]: < 7 nM
EC50 [16]: 6 nM
Drug metabolism [17]: 85 pM
amount per cells [18]: 0.84 pmol/10^6 cells
IC50 [19]: < 85 nM
half-life [20]: 0.34 h
Cmax [21]: 1990 nM
AUC(0-t) at 0.5 h [22]: 0.962 µM·h
t1/2 [23]: 8.71 h
Drug uptake [24]: 20.5 nmol
Cmax [25]: 140 nM
AUC [26]: 2.55 µM·h
half-life [27]: 7.01 h
AUC(0-t) at 24 h [28]: 1.74 µM·h
Activity [29]: 3.6 log10/ml
Activity [30]: inactive
Activity [31]: inactive
